Test results: patent US11707500B2, “Growth promoting peptides, and uses thereof” (NURITAS LIMITED, priority 2015, dated 2023)

Columns and labels:
[1] = tested on: keratinocytes of the basal layer of the epidermis, human skin tissue explants; assay: Ki67 immunohistochemistry (mitotic index) in skin explants; type: cell-based; settings: for % of Ki67 positive cells in the basal layer of the epidermis: peptides 20 μM (Peptide 8 10 μM), compositions 500 μg/mL, EGF 10 ng/mL; for number of mitotic cells compared to EGF at day 1: day 1, compared to EGF
Method: (§1) Skin explants were prepared from abdominal plastic surgery. Some explants were delipidated with alcohol to obtain a dehydrated skin.
(§2) These explants were maintained in maintenance medium supplied by the provider Bioprédic International for 5 days. Test items are applied twice per day with 5 μL per explant.
(§3) After receipt in the laboratory, each skin explant in the maintenance medium is delipidated with 5 μL alcohol during 3 hours.
(§4) After 3 hours, all skin explants are treated two per day with test items, and they are incubated at 37° C.+/−2° C., 5% CO2 for 1 day or 5 days. Integrity of the system is realized at day 1 and day 5 with a viability control with MTT.
Epithelial proliferation was analyzed by immunohistochemistry using anti-Ki67 antibody.
Counting the number of labeled cells (keratinocytes of the basal layer of the epidermis) is performed and provides the total number of basal cells to calculate the % of labeled cells.
The results of the immunohistochemical analysis of Ki67 are reported in Table 4 and expressed as % of labelled at the basal layer of the epidermis. […] Immunohistochemical analysis of mitotic activity is shown in annex 4 with a reminder of the average for each analysed conditions.

[2] = tested on: elastic fibers of the dermis, human skin tissue explants; assay: Morphometric quantification of elastic fibers (elastin expression) in skin explants; type: cell-based; settings: for Morphometric quantification of elastic fibers in the middle dermis (%) / Morphometric quantification of elastic fibers in the superficial dermis (%): test items applied twice per day, 5 μL per explant, peptides 20 μM (Peptide 8 10 μM), compositions 500 μg/mL, EGF 10 ng/mL
Method: as §1, §2
For each time of analysis (D1 and D5), histologies on delipidated explants, treated explants with test items, the DMSO 0.3% control and water control, are performed.
as §3, §4
Histology is realized by the laboratory Gredeco and the immunostaining to elastin and Ki67 are realized by the same laboratory. Immunostaining to filaggrin is realized by the laboratory Intertek.
The immunohistochemical staining intensity in the elastic fibers is evaluated using a semi-quantitative histological score.
The percentage area taken up by elastic fibers in the dermis was calculated in the dermis and the average superficial dermis.

Sequence | % of Ki67 positive cells in the basal layer of the epidermis ([1]; D 1) [%] | % of Ki67 positive cells in the basal layer of the epidermis ([1]; D 5) [%] | Morphometric quantification of elastic fibers in the middle dermis (%) ([2]; D 1) | Morphometric quantification of elastic fibers in the superficial dermis (%) ([2]; D 1) | elastic fibers in the middle dermis compared to the water control at D5 [2] | Morphometric quantification of elastic fibers in the middle dermis (%) ([2]; D 5) | Morphometric quantification of elastic fibers in the superficial dermis (%) ([2]; D 5) | elastic fibers in the superficial dermis compared to control water [2] | number of mitotic cells compared to EGF at day 1 [1] | elastic fibers in the middle dermis at day 1 compared to control water ([2]; day 1, compared to control water)
LDALEPDNR [0723.03] | 22.01 | 10.04 | 4.9 | 3 | an increase | 9 | 11.68 | increase by twice | – | –
QQYGIAASPFLQSAA [0723.07] | 22.22 | 5.26 | 6.46 | 4 | – | 5.33 | 5.15 | – | – | –
VLLEQQEQEPQH [0723.05] | 9.48 | 3.08 | 8.8 | 6.34 | – | 6.61 | 6.26 | – | – | –
SKPHTIFLPQHTDADYILVVLSGK [0723.08] | 27.83 | 5.72 | 3.52 | 2.7 | – | 7.27 | 5.32 | – | an increase | –
RPYYSNAPQEIF [0723.04] | 14.97 | 11.36 | 5.22 | 3.28 | – | 9 | 8.94 | – | – | –
TVFDGVLRPGQL [0723.06] | 31.97 | 5.04 | 4.54 | 3.8 | – | 8.67 | 4.03 | – | an increase | –
RLQSQNDQRGEIIHVK [0723.02] | 19.61 | 6.73 | – | 6.09 | an increase | 9.08 | 7.59 | – | – | increase doubled
HGPVEMPYTLLYPSSK [0723.01] | 18.57 | 3.92 | 7.59 | 4.45 | an increase | 10.17 | 10.21 | increase by twice | – | –
